# Source: paper PMC11743353 (Pharmacological Reports, 2024)
# Like-named read-outs stand apart in the source and are kept apart here.
# Tests used:
# [1] = MTT assay for cell viability; type: cell-based; settings: human, Calu-3 cells, read-out: CC50 (cytotoxic concentration 50%)
# SARS-CoV-2 [2] = experiment: microbe, parasite or virus in culture; type: cell-based; settings: for EC50: Severe acute respiratory syndrome coronavirus 2, Calu-3
# SARS-CoV-2 [3] = experiment: Plaques analysis (plaque dimension on Vero E6 cells); settings: Vero E6 cells infected with supernatants of treated Calu-3 cells; mean diameter of 10 plaques
# Protocol: In order to assess the levels of infective SARS-CoV-2 released by treated or untreated cells, a plaque assay was performed. Vero E6 were seeded in 12-well plates and infected with serial dilution (10-fold) of the supernatants derived from treated and infected Calu-3 cells. Plaques were visible five days after infection, then cells were methanol-fixed, stained with crystal violet (0.1%) and plaques were manually counted [26] (microscope NeXcope NE620). The experiments were run in triplicate.
# After crystal violet (0.1%) staining for antiviral activity assessment, plaques forming unit were identified and measured in size. Dimension of plaques derived by cytopathic effect of SARS-CoV-2 in Vero E6 cells was evaluated by microscopy (NeXcope NE620). For each well, 5 different fields were manually selected, and at least 10 plaques for each condition were identified and measured using NeXcope visualization software (Capture V.2.0) and reported as mean diameter (mm) ± SD.
# [4] = test system: ACE2 expression on Calu-3 cell surface; experiment: ACE2 immunofluorescence assay on Calu-3 cell surface; type: cell-based, human; settings: Calu-3 cells; for ACE2 expression on cell membranes (immunofluorescence): 25 µM, 24 h and 48 h, compared to untreated
# Protocol: Calu-3 cells were incubated with a specific antibody against human angiotensin-converting enzyme 2 (ACE2) (SN0754 Thermo Fisher; Italy) as previously reported, followed by incubation with the FITC goat antirabbit IgG (H + L) secondary antibody (Thermo Fisher, Milan, Italy). Immunofluorescence was observed by fluorescence microscopy (Nikon Eclipse TE2000S, Milan, Italy). DNA was stained using DAPI (Thermo Fisher, Milan, Italy) to identify cell nuclei and reported as relative fluorescence units (RFU) compared to untreated control sample, by immunofluorescence quantification derived by the analysis of 5 different images derived by biological replicates, using Qupath software. In Brief, for each condition, the percentage of ACE2-positive stained cells was obtained considering the total DAPI-stained nuclei as 100% and then normalized on untreated control sample result and reported as fold difference value.
# Considering the role of ACE2 receptor in viral entry into host cells, and the ability of ADAM17 to shed it from cell surface, we analyzed ACE2 expression on Calu-3 cell surface by immunofluorescence after 24 and 48 h of treatment with the three compounds, at the concentration of 25 µM (Fig. 4 and supplementary Figure S1).
# MMP-1 [5] = target: T1, MMP-1 (Homo sapiens, UniProt P03956); settings: isolated enzyme, fluorometric assay; cited from earlier work
# T1 construct: purchased Merck Millipore 444208
# T1 sequence (P03956 100-469): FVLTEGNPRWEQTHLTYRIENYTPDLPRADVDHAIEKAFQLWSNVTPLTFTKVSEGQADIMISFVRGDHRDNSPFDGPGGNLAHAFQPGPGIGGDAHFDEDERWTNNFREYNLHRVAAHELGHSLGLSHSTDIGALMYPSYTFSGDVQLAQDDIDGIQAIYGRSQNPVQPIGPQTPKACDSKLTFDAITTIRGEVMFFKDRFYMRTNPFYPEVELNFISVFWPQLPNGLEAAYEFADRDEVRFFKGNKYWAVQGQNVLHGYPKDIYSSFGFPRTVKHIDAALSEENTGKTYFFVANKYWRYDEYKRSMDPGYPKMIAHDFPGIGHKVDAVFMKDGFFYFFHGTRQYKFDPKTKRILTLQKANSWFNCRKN
# [6] = target: T2, Recombinant human MMP-14 catalytic domain (Homo sapiens, UniProt P50281); experiment: Fluorometric enzyme inhibition assay, MMP-14; type: biochemical; settings: isolated enzyme
# T2 construct: Recombinant human MMP-14 catalytic domain was a kind gift of Prof; Gillian Murphy; gift of Prof; Gillian Murphy (Department of Oncology, University of Cambridge, UK)
# MMP-2 = target: T3, MMP-2 (Homo sapiens, UniProt P08253); experiment: Fluorometric enzyme inhibition assay, MMP-2; type: biochemical; settings: isolated enzyme
# T3 construct: purchased Merck Millipore PF037
# T3 sequence (P08253 110-660): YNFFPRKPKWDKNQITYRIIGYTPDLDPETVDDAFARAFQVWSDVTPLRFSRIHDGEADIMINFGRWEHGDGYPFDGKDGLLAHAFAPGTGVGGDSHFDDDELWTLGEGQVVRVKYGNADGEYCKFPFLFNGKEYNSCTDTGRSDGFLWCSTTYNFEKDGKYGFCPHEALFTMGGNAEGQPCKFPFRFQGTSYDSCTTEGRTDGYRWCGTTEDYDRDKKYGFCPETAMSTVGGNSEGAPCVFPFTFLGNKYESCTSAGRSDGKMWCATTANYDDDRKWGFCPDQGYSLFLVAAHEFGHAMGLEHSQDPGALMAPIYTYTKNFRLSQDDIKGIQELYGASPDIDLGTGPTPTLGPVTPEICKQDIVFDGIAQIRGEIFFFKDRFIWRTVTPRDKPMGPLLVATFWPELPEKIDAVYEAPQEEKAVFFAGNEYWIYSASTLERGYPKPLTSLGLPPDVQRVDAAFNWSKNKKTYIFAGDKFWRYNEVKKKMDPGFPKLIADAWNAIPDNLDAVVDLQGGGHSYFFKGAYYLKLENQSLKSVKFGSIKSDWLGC
# MMP-1 [7] = target: T1, MMP-1; experiment: Fluorometric enzyme inhibition assay, MMP-1; type: biochemical; settings: isolated enzyme
# recombinant human ADAM17 = target: T4, recombinant human ADAM17 (Homo sapiens, UniProt P78536); experiment: Fluorometric enzyme inhibition assay, ADAM17; type: biochemical; settings: isolated enzyme
# T4 construct: purchased Merck Millipore PF133
# T4 sequence (P78536 215-824): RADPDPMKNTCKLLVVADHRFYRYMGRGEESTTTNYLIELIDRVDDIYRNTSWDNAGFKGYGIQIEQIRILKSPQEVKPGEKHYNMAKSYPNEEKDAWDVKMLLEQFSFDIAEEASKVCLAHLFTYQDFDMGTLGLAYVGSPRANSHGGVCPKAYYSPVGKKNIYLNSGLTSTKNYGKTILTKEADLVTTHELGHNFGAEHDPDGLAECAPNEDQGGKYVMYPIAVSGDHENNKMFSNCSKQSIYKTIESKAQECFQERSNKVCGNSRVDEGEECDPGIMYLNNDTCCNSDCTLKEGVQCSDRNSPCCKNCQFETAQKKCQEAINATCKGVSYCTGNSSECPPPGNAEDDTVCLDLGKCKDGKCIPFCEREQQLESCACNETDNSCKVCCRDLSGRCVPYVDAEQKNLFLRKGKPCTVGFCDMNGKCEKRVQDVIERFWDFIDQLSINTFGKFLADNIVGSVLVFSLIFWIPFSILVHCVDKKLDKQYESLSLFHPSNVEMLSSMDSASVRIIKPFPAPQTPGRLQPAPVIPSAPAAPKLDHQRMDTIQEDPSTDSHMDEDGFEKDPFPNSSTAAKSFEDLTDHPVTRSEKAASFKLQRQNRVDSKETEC
# Recombinant human ADAM10 = target: T5, Recombinant human ADAM10 (Homo sapiens, UniProt O14672); experiment: Fluorometric enzyme inhibition assay, ADAM10; type: biochemical; settings: isolated enzyme
# T5 construct: purchased R&D Systems 936-AD
# T5 sequence (O14672 214-748): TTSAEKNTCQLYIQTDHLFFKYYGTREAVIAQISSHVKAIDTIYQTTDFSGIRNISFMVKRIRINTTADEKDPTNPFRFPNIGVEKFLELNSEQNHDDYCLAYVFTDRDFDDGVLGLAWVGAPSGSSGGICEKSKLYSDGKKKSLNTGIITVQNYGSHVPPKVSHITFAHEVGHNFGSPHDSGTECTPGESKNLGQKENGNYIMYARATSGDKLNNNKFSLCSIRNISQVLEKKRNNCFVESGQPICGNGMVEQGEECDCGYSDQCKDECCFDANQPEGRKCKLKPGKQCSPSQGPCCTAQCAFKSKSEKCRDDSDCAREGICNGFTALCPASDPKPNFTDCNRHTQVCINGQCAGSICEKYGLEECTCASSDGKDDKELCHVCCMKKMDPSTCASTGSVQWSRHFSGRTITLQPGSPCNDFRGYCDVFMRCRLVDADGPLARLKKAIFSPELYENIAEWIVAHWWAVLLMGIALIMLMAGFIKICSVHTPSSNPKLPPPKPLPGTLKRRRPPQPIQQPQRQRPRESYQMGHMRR
# MMP-9 = target: T6, MMP-9 (Homo sapiens, UniProt P14780); experiment: Fluorometric enzyme inhibition assay, MMP-9; type: biochemical; settings: isolated enzyme
# T6 construct: purchased Merck Millipore PF038
# T6 sequence (P14780 107-707 limits assumed): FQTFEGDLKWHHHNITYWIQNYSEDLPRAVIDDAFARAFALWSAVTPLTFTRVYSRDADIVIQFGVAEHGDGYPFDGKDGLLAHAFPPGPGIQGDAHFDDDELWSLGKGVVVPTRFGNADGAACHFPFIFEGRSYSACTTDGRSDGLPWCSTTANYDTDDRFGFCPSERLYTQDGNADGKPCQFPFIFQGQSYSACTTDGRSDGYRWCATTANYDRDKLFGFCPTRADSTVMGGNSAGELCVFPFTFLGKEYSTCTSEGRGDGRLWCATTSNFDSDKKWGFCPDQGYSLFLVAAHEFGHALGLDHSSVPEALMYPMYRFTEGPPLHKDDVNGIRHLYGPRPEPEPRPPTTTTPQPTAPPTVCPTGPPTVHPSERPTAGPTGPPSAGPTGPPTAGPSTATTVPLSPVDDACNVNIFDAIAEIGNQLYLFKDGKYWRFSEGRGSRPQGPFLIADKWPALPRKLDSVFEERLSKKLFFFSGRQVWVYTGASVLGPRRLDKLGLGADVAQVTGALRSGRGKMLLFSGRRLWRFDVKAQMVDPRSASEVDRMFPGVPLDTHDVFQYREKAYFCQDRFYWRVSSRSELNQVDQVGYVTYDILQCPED
# sALCAM release = test system: sALCAM release; set-up: method as in PMID 24044434; settings: ovarian cancer cell lines; cited from earlier work
# CD16 shedding = test system: CD16 shedding; set-up: method as in PMID 28192188; settings: 30 µM; PBMC co-cultured with hepatitis C virus-infected HuH7.5 cells; cited from earlier work
# SARS-CoV-2 [8] = type: cell-based
# SARS-CoV-2 [9] = type: cell-based; remark: listed apart in the source
# [10] = using CC50 values after 48 h of treatment
SMILES,CC50 at 24 h [1] [µM],CC50 at 48 h [1] [µM],EC50 (SARS-CoV-2 [2]) [µM],"SI (selectivity index, CC50/EC50) (SARS-CoV-2 [2]; [10])",Plaque dimension (mm ± SD) (SARS-CoV-2 [3]) [mm],ACE2 expression on cell membranes (immunofluorescence) [4],IC50 (MMP-1 [5]) [µM],also measured
O=C(NCCC[C@@H](NS(=O)(=O)c1ccc(OCc2cc(Br)cc(Br)c2)cc1)C(=O)NO)c1cccc(C(=O)NCCC[C@@H](NS(=O)(=O)c2ccc(OCc3cc(Br)cc(Br)c3)cc2)C(=O)NO)c1 [Compound 1],113,113,12.7,8.91,0.53± 0.19,increased ACE2 expression,> 200,
"CC(=O)N[C@@H]1[C@@H](O)[C@H](O)[C@@H](CO)O[C@H]1NC(=S)NCCOCCOCCOCCOCCC(=O)NCCC[C@@H](NS(=O)(=O)c1ccc(OCc2cc(Br)cc(Br)c2)cc1)C(=O)NO [Compound 2, 1-(((2R, 3R, 4R, 5 S, 6R)-3-acetamido-4,5-dihydroxy-6-(hydroxymethyl)tetrahydro-2 H-pyran-2-yl)amino)-N-((R)-4-(4-((3,5-dibromobenzyl)oxy)phenylsulfonamido)-5-(hydroxyamino)-5-oxopentyl)-1-thioxo-5,8, 11, 14-tetraoxa-2-azaheptadecan-17-amide]",67.2,72,13.6,5.29,0.61± 0.23,,,IC50 [6]: 70.7 µM; IC50 (MMP-2): 0.32 µM; IC50 (MMP-1 [7]): > 200 µM; IC50 (recombinant human ADAM17): 0.0055 µM; IC50 (Recombinant human ADAM10): 0.81 µM; IC50 (MMP-9): 1.77 µM
NC(=O)NCCC[C@@H](NS(=O)(=O)c1ccc(OCc2cc(Br)cc(Br)c2)cc1)C(=O)NO [JG26],77.9,107,8.1,,0.42± 0.2,increased ACE2 expression,> 500,"block of sALCAM release (sALCAM release): able to block sALCAM release; reduction of CD16 shedding (CD16 shedding): active; SI (selectivity index, CC50/EC50) (SARS-CoV-2 [2]): 13.23; LR vs DMSO (viral load logarithmic reduction), plaque assay (SARS-CoV-2 [8]): 1.44; effect on viral infection at lower concentration (SARS-CoV-2 [8]): did not show any effect; LR vs DMSO (viral load logarithmic reduction), RT-qPCR (SARS-CoV-2 [9]): 2.37"
"CCCCCCCCCCCCCC(=O)O[C@@H]1[C@@H](C)[C@@]2(O)[C@@H](C=C(CO)C[C@]3(O)C(=O)C(C)=C[C@@H]23)[C@@H]2C(C)(C)[C@]12OC(C)=O [PMA, Phorbol 12-myristate 13-acetate, reference compound]",,,,,0.82± 0.32,,,"effect on SARS-CoV-2 infection (plaque assay and genome titration) (SARS-CoV-2 [8]): induced a sensible SARS-CoV-2 infection progression; ACE2 expression (immunofluorescence), ADAM17 inductor control ([4]; PMA control, compared to untreated samples): slightly decreased ACE2 expression"
